From patent publication US20210290557A1, “MULTI-PARTICULATE PHARMACEUTICAL COMPOSITION, IMMEDIATE RELEASE PELLETS, SUSTAINED RELEASE PELLETS, ENTERIC RELEASE PELLETS AND USE THEREOF” (Industrial Technology Research Institute, priority 2019, published 2021)

Test: Solubility test for sobrerol in dissolution medium with different pH and purified water
Type: physicochemical
Description: 1. The Preparation of Dissolution Medium with Different pH Levels:
(1) Dissolution Medium with pH 2.5
7.164 g of disodium hydrogen phosphate (containing 12 molecules of water) was added to a 100 mL volumetric flask, then purified water was added to quantify to 100 mL, and then stirred using a stir bar. After the disodium hydrogen phosphate (containing 12 molecules of water) in the volumetric flask was completely dissolved, a 0.2 M disodium hydrogen phosphate solution was obtained.
19.213 g of anhydrous citric acid was assed to a 1 L volumetric flask, then purified water water was added to quantify to 1 L, and then stirred using a stir bar. After the anhydrous citric acid in the volumetric flask was completely dissolved, a 0.1 M citric acid solution was obtained.
Next, According to the list of formulas of McIlvaine buffer with different pH values, 0.2 M […] solution and 0.1 M citric acid solution were mixed at a ratio of 1.71:18.29 to obtain a dissolution medium with pH 2.5.
(2) Dissolution Medium with pH 4.5
15.6 g of Sodium dihydrogen phosphate (containing 2 molecules of water) was added to a 1 L volumetric flask, then purified water water was added to quantify to 1 L, and then stirred using a stir bar. After the sodium dihydrogen phosphate (containing 2 molecules of water) in the volumetric flask was completely dissolved, a phosphate dissolution medium with pH 4.5 was obtained.
(3) Dissolution Medium with pH 6.8
7.8 g of Sodium dihydrogen phosphate (containing 2 molecules of water) and 0.94 g of sodium hydroxide were added to a 1 L volumetric flask, then purified water water was added to quantify to 1 L, and then stirred using a stir bar. […]
250 mL of dissolution medium prepared above or purified water water was added to a beaker and a stir bar was added for stirring. […] Sobrerol was continuously added until sobrerol cannot be completely dissolved within 30 minutes, and then the total amount of sobrerol added was counted, that was, the actual solubility limit of sobrerol.

CC1=CCC(C(C)(C)O)CC1O (stereo not drawn) [sobrerol]
soluble amount of sobrerol (actual solubility limit) (250 mL dissolution medium with pH 2.5, 4.5, 6.8 or purified water, all media): > 900 mg | effect of pH on solubility of sobrerol (dissolution medium with different pH and purified water): not affected by pH | solubility classification according to FDA Biopharmaceutics Classification System guideline (soluble amount compared with the daily total of 900 mg): meets the specifications for high solubility drugs
